We go through five compounds from publication PMC11822212, “High-throughput screening identifies Aurora kinase B as a critical therapeutic target for Merkel cell carcinoma” (Nature Communications, 2025).

What all share (assay): qHTS cell viability (CellTiter-Glo, 72 h; primary and follow-up small molecule screen)
Assay type in all cases: cell-based, human
On the technique in general: In qHTS, concentration-response curves come from the screen itself.

Assay [1] concerns MCC13 cells (VN-MCC).
Assay [2] concerns MCC26 cells (VN-MCC).
Assay [3] relates to UISO cells (VN-MCC).
Assay [4] has as its system WAGA cells (VP-MCC).
In assay [5] the test system is MKL-1 cells (VP-MCC).
The subject of assay [6] is MKL-2 cells (VP-MCC).

Values joined by “and” are separate entries in the source; they are usually repeats but may differ in a detail not shown here. Identical values can stand only once.

`CCCC[C@@H](C)/C=C(C)/C=C(\C)C(=O)NC1=C[C@@](O)(/C=C/C=C/C=C/C(=O)NC2=C(O)CCC2=O)[C@@H]2O[C@@H]2C1=O` [manumycin A]: in assay [1], the “Area under the dose-response curve (AUC) MCC13 Replicate 1” value (“Area … (AUC) MCC13 Replicate 1” for short) is listed as 464.3, the “Area under the dose-response curve (AUC) MCC13 Replicate 2” value (shortened to “Area … (AUC) MCC13 Replicate 2”) is reported as 477.8 and the “Area under the dose-response curve (AUC) MCC13 Replicate 3” value (“Area … (AUC) MCC13 Replicate 3” below) was found to be 420.7. Moreover, in assay [2], the “Area under the dose-response curve (AUC) MCC26 Replicate 1” value (from here on “Area … (AUC) MCC26 Replicate 1”) was 416.4, the “Area under the dose-response curve (AUC) MCC26 Replicate 2” value (shortened to “Area … (AUC) MCC26 Replicate 2”) was 409.7 and the “Area under the dose-response curve (AUC) MCC26 Replicate 3” value (“Area … (AUC) MCC26 Replicate 3” below) is given as 443.4. For the same compound, in assay [3], the “Area under the dose-response curve (AUC) UISO Replicate 1” value (from here on “Area … (AUC) UISO Replicate 1”) was 429.0, the “Area under the dose-response curve (AUC) UISO Replicate 2” value (from here on “Area … (AUC) UISO Replicate 2”) is on record as 434.7 and the “Area under the dose-response curve (AUC) UISO Replicate 3” value (from here on “Area … (AUC) UISO Replicate 3”) was found to be 408.1. Besides, in assay [4], the “Area under the dose-response curve (AUC) WAGA Replicate 1” value (from here on “Area … (AUC) WAGA Replicate 1”) was determined as 424.6, the “Area under the dose-response curve (AUC) WAGA Replicate 2” value (from here on “Area … (AUC) WAGA Replicate 2”) is reported as 379.9 and the “Area under the dose-response curve (AUC) WAGA Replicate 3” value (from here on “Area … (AUC) WAGA Replicate 3”) is reported as 418.7. For the same compound, in assay [5], the “Area under the dose-response curve (AUC) MKL-1 Replicate 1” value (from here on “Area … (AUC) MKL-1 Replicate 1”) is given as 418.4, the “Area under the dose-response curve (AUC) MKL-1 Replicate 2” value (shortened to “Area … (AUC) MKL-1 Replicate 2”) stood at 432.7 and the “Area under the dose-response curve (AUC) MKL-1 Replicate 3” value (“Area … (AUC) MKL-1 Replicate 3” below) came out at 426.4. In assay [6], the “Area under the dose-response curve (AUC) MKL-2 Replicate 1” value (from here on “Area … (AUC) MKL-2 Replicate 1”) is 385.8, the “Area under the dose-response curve (AUC) MKL-2 Replicate 2” value (shortened to “Area … (AUC) MKL-2 Replicate 2”) was 395.8 and the “Area under the dose-response curve (AUC) MKL-2 Replicate 3” value (“Area … (AUC) MKL-2 Replicate 3” below) was 389.6.

Turning to AZD-4547, the “Area under the dose-response curve (AUC)” value in assay [1] was 385.3 and 349.5 and 390.1; in assay [2], 311.4 and 288.0 and 307.4; in assay [3], 337.7 and 347.0 and 331.2; in assay [4], 425.9 and 443.6 and 367.2; in assay [5], 362.7 and 390.5 and 360.0; in assay [6], 380.8 and 390.1 and 354.8.

Consider Oxamflatin, for which the “Area under the dose-response curve (AUC)” value in assay [1] was 440.6 and 393.8 and 429.1; in assay [2], 406.5 and 378.8 and 411.0; in assay [3] it was 391.0 and 406.3 and 400.1; in assay [4], 338.5 and 313.0 and 330.7; in assay [5] it was 365.5 and 347.7 and 381.7; in assay [6], 378.9 and 303.8 and 268.6.

In the case of Phenylmercuric acetate, in assay [1], the “Area … (AUC) MCC13 Replicate 1” value is on record as 405.8, the “Area … (AUC) MCC13 Replicate 2” value came out at 369.3 and the “Area … (AUC) MCC13 Replicate 3” value was 386.0. For the same compound, in assay [2], the “Area … (AUC) MCC26 Replicate 1” value was found to be 356.5, the “Area … (AUC) MCC26 Replicate 2” value was 359.6 and the “Area … (AUC) MCC26 Replicate 3” value was 374.3. Moreover, in assay [3], the “Area … (AUC) UISO Replicate 1” value is reported as 343.0, the “Area … (AUC) UISO Replicate 2” value is listed as 369.6 and the “Area … (AUC) UISO Replicate 3” value turned out to be 334.3. Moreover, in assay [4], the “Area … (AUC) WAGA Replicate 1” value stood at 330.3, the “Area … (AUC) WAGA Replicate 2” value was 317.4 and the “Area … (AUC) WAGA Replicate 3” value stood at 331.4. Besides, in assay [5], the “Area … (AUC) MKL-1 Replicate 1” value came out at 287.3, the “Area … (AUC) MKL-1 Replicate 2” value stood at 286.9 and the “Area … (AUC) MKL-1 Replicate 3” value was 280.4. Moreover, in assay [6], the “Area … (AUC) MKL-2 Replicate 1” value was determined as 295.2, the “Area … (AUC) MKL-2 Replicate 2” value amounted to 271.6 and the “Area … (AUC) MKL-2 Replicate 3” value amounted to 292.7.

For SP-600125, in assay [1], the “Area … (AUC) MCC13 Replicate 1” value is 457.8, the “Area … (AUC) MCC13 Replicate 2” value amounted to 483.0 and the “Area … (AUC) MCC13 Replicate 3” value was found to be 492.5. Moreover, in assay [2], the “Area … (AUC) MCC26 Replicate 1” value stood at 435.5, the “Area … (AUC) MCC26 Replicate 2” value is 426.6 and the “Area … (AUC) MCC26 Replicate 3” value was 458.4. In assay [3], the “Area … (AUC) UISO Replicate 1” value was found to be 425.2, the “Area … (AUC) UISO Replicate 2” value amounted to 449.0 and the “Area … (AUC) UISO Replicate 3” value worked out at 462.0. In assay [4], the “Area … (AUC) WAGA Replicate 1” value worked out at 479.2, the “Area … (AUC) WAGA Replicate 2” value was determined as 486.5 and the “Area … (AUC) WAGA Replicate 3” value is on record as 468.4. In addition, in assay [5], the “Area … (AUC) MKL-1 Replicate 1” value was determined as 472.9, the “Area … (AUC) MKL-1 Replicate 2” value was 491.9 and the “Area … (AUC) MKL-1 Replicate 3” value came to 491.6. For the same compound, in assay [6], the “Area … (AUC) MKL-2 Replicate 1” value is listed as 447.3, the “Area … (AUC) MKL-2 Replicate 2” value turned out to be 464.7 and the “Area … (AUC) MKL-2 Replicate 3” value is 498.4.
